Values quoted from earlier work, collected in patent US20260207574A1, “Pharmaceutical composition of pitolisant hydrochloride and Their Process for the preparation” (MSN Laboratories Private Limited, R & D Center, priority 2022, published 2026).
Counter-ions that a name gives are not always drawn.

Experiments:
[1] = until 75% RH; as per EMA
[2] = leads to N-oxide derivative as main degradation product; as per EMA

## Clc1ccc(CCCOCCCN2CCCCC2)cc1 [pitolisant]
[1]
  hygroscopicity: not hygroscopic
[2]
  sensitivity to oxidative conditions: sensitive to excessive oxidative conditions
water, until pH 7.5, as per EMA
  solubility in water until pH 7.5: very soluble

## Clc1ccc(CCCOCCCN2CCCCC2)cc1 [Pitolisant hydrochloride, 1-{3-[3-(4-chlorophenyl)propoxy]propyl} piperidine, hydrochloride]
acetone
  solubility in acetone: freely soluble
cyclohexane
  solubility in cyclohexane: practically insoluble
ethanol
  solubility in ethanol: very soluble
Methylene chloride
  solubility in methylene chloride: very soluble
water
  solubility in water: very soluble
